From US10532106B2 (priority 2014, dated 2020)
Entries after “also recorded” stand apart in the source; their conditions may differ. Where two headings read alike, the source gives them in different places. Numbered stars: 1 amine (or outer) side, 2 acyl side, 3 side chain; on linkers, the order of the positions; unused ones are H or OH. Bridge positions count the residues as written; N and C are the ends. Square brackets hold non-standard residues; d marks the D form. Peptide text beside a SMILES is read from it. * marks the point of attachment. X1 = COc1cc2cc(c1Cl)N(C)C(=O)C[C@H](OC(=O)[C@H](C)N(C)C(=O)CCC(C)(C)SSCCCC(=O)*)[C@]1(C)O[C@H]1[C@H](C)[C@@H]1C[C@@](O)(NC(=O)O1)[C@H](OC)/C=C/C=C(\C)C2; X2 = COc1cc2cc(c1Cl)N(C)C(=O)C[C@H](OC(=O)[C@H](C)N(C)C(=O)CCC(C)SSC(C)CCC(=O)*)[C@]1(C)O[C@H]1[C@H](C)[C@@H]1C[C@@](O)(NC(=O)O1)[C@H](OC)/C=C/C=C(\C)C2; 1Nal = N[C@@H](Cc1cccc2ccccc12)C(=O)O; TBMB = c1c(C[*:1])cc(C[*:3])cc1C[*:2]; Tle = CC(C)(C)[C@H](N)C(=O)O; βAla = NCCC(=O)O; Sar = CNCC(=O)O

Tests used:
[1] = Plasma stability, quantitative LC-MS (Method #2); type: in vitro ADME, mouse; details: for t1/2 (hrs) (mouse plasma): Table 16, incubation up to 24 hrs, 4 μM
Description: (§1) […] […] Prior to LC-MS analysis, samples were defrosted, and mixed with 3 volumes (here, 120 μL) of 1:1 acetonitrile/MeOH water. The milky suspensions were centrifuged for 30 min at 13000 rpm, and peptide-containing supernatants were quantitated for doubly/triply charged species and MS/MS fragments thereof using a Waters Xevo TQ-D instrument, while using a plasma extracted standard curve of the same peptides as a reference. The half-life of degradation in plasma was used to assess the comparative stability of the molecules.

[2] = Plasma stability, quantitative LC-MS; type: in vitro ADME, rat; details: Table 16; incubation up to 24 hrs, 4 μM
MT1-MMP hemopexin domain = molecular target: T1, MT1-MMP hemopexin domain (Homo sapiens, UniProt P50281); test: Competition assay using fluorescence polarisation; type: binding; details: for Kd: Table 16, read-out: Kd (nM) (Hemopexin domain)
T1 construct: residues Cys319-Gly511 from the human gene; His6 (N); made in house; host or cells: HEK293 (transient), pEXPR-IBA42 vector
How it was run: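 Pre-formed PEX–fluorescent tracer complex titrated with non-fluoresceinated bicyclic peptide, which displaces tracer and lowers fluorescence polarisation. Competitor Kd obtained by fitting to the cubic-equation solution for tracer/titrant/protein equilibria, using tracer Kd from separate direct-binding FP.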

[3] = Degradation products in mouse plasma by MALDI-TOF (Method #1); type: in vitro ADME
Description: A rapid plasma stability profiling assay was developed that employed mass spectrometric detection (MALDI-TOF, Voyager DE, Applied Biosystems) of the parent mass as well as plasma-protease induced fragments thereof. By assessing the nature of the fragments, preferred cleavage sites can be determined. Here, a 1-1.5 mM peptide stock (in DMSO) was directly diluted into mouse/rat/human plasma (Sera labs, using citrate as anticoagulant), giving a final concentration of 50 μM peptide, and incubated for up to 48 hrs at 37° C. 5 μL samples were taken at appropriate time points and frozen at −80° C. For analysis, the samples were defrosted, mixed with 25 μL of 3:3:1 acetonitrile:methanol:water, and centrifuged at 13 k for 5 min. 5 μL of the peptide-containing supernatant was aspirated and mixed with 30 mM ammonium bicarbonate in a 1:1 mixture of acetonitrile:H2O. 1 μL of this was then spotted on the MALDI plate, dried, and Matrix (alpha-cyanocinnamic acid, Sigma, prepared as a saturated solution in 1:1 acetonitrile:water containing 0.1% trifluoroacetic acid) was layered over the sample (1 μL), dried and analysed using the MALDI TOF. […]
In an effort to understand the chemical nature of the degradation of 17-69-07-N219 in mouse plasma, samples were analysed using MALDI-TOF for any potential degradation products.

[4] = cited from earlier work; for reduction in sensitivity to a reducing agent such as dithiothreitol (compared to the non-hindered disulphide): in the antibody drug conjugate context; for Relative Stability to DTT (ADC): values relate to antibody drug conjugates containing the disulphide linker
[5] = Relative stability to DTT of Bicycle Drug Conjugates, quantitative LC-MS; type: physicochemical; details: Bicycle Drug Conjugates containing the disulphide linker
Description: The four BDCs were assessed for several in vitro parameters such as retention of potency to the human MT1-MMP hemopexin domain, stability in ex vivo mouse, rat and human plasma, and stability to reducing agents such as dithiothreitol.

[6] = tested on: human lung squamous cell carcinoma line EBC-1; test: Efficacy in EBC-1 xenograft mice; type: in vivo, mouse
Description: All BDCs containing the stabilised bicycle core sequence were tested for their efficacies in in vivo mouse xenograft models, using the human lung squamous cell carcinoma line EBC-1.
The area under the curve (AUC) of tumour volume over time and BDC was taken and plotted against the corresponding dose group (FIG. 13).

[7] = Plasma stability, quantitative LC-MS (Method #2); type: in vitro ADME, human; details: for degradation half-life in human plasma: refers to Table 16
Description: as §1

[8] = molecular target: T2, hemopexin domain of MT1-MMP (Homo sapiens, UniProt P50281); test: Hemopexin binding assay using the alpha screen; details: qualitative
T2 construct: residues Cys319-Gly511 from the human gene; His6 (N); made in house; host or cells: HEK293 (transient), pEXPR-IBA42 vector
Description: Employing previously established methods for generating bicyclic peptide phage libraries, selections were performed against the human hemopexin domain of MT1-MMP.
The most frequently occurring sequences were assayed for Hemopexin binding using the alpha screen, where all signals were high compared to the original 17-69 sequence (see Table 1 and FIG. 14): […]

[9] = plasma samples taken at t=0.5, 1 and 2 hrs from intravenously dosed mice; details: male CD1 mice, up to 2 hrs
[10] = plasma samples from mice dosed intravenously (0.5, 1 and 2 hrs); details: male CD1 mice, up to 2 hrs
rat plasma = details: up to 24 hrs
mouse plasma = details: up to 24 hrs
human plasma = details: up to 24 hrs

Compound: CC[C@H](C)[C@@H]1NC(=O)[C@H](CC(=O)O)NC(=O)[C@H](Cc2ccc(O)cc2)NC(=O)[C@H](Cc2ccccc2)NC(=O)[C@H](CC(=O)O)NC(=O)[C@H](CCC(=O)O)NC(=O)[C@@H]2CSCc3cc(cc(c3)CSC[C@H](NC(=O)[C@H](C)NC(=O)CN(C)C(=O)CN(C)C(=O)CN(C)C(=O)CN(C)C(=O)CN(C)C(=O)CN(C)C(=O)CN(C)C(=O)CN(C)C(=O)CN(C)C(=O)CN(C)C(=O)CN)C(=O)N[C@@H](Cc3ccc(O)cc3)C(=O)N[C@@H](CC(N)=O)C(=O)N[C@@H](CCC(=O)O)C(=O)N[C@@H](Cc3ccccc3)C(=O)NCC(=O)N2)CSC[C@@H](C(N)=O)NC1=O [17-69-07-N219, G-Sar10-A-(17-69-07)] (H-G[Sar][Sar][Sar][Sar][Sar][Sar][Sar][Sar][Sar][Sar]ACYNEFGCEDFYDIC-NH2; linker 13-19-26 via TBMB)
- t1/2 (hrs) (mouse plasma) [1]: 3.9 ± 0.3 h
- half-life in mouse plasma ([1]; ex vivo mouse plasma at 37° C. (FIG. 1, FIG. 3A)): 6 h
- t1/2 (hrs) (rat plasma) [2]: 3.7 ± 0^ hrs
- species cross-reactivity (MT1-MMP hemopexin domain; murine, dog, cynomolgus and human MT1-MMP): fully cross reactive
- degradation products [3]: possible loss of tyrosine

Compound: COc1cc2cc(c1Cl)N(C)C(=O)C[C@H](OC(=O)[C@H](C)N(C)C(=O)CCC(C)(C)SSCCCC(=O)NCCC(=O)N(C)CC(=O)N(C)CC(=O)N(C)CC(=O)N(C)CC(=O)N(C)CC(=O)N(C)CC(=O)N(C)CC(=O)N(C)CC(=O)N(C)CC(=O)N(C)CC(=O)N[C@@H](C)C(=O)N[C@H]1CSCc3cc4cc(c3)CSC[C@H](NC(=O)[C@@H](C)NC(=O)[C@H](Cc3cccc5ccccc35)NC(=O)[C@H](CCC(=O)O)NC(=O)[C@H](CC(N)=O)NC(=O)[C@@H](C)NC1=O)C(=O)N[C@@H](CCC(=O)O)C(=O)N[C@@H](CC(=O)O)C(=O)N[C@@H](Cc1ccccc1)C(=O)N[C@@H](Cc1ccc(O)cc1)C(=O)N[C@@H](CC(=O)O)C(=O)N[C@@H](C(C)(C)C)C(=O)N[C@H](C(N)=O)CSC4)[C@]1(C)O[C@H]1[C@H](C)[C@@H]1C[C@@](O)(NC(=O)O1)[C@H](OC)/C=C/C=C(\C)C2 [BT17BDC-19] ({X1-βAla}-[Sar][Sar][Sar][Sar][Sar][Sar][Sar][Sar][Sar][Sar]AC[dA]NE[1Nal][dA]CEDFYD[Tle]C-NH2; linker 12-18-25 via TBMB)
- reduction in sensitivity to a reducing agent such as dithiothreitol (compared to the non-hindered disulphide) [4]: 14 fold
- Relative Stability to DTT (ADC) [4]: 14
- t1/2 (hrs) (mouse plasma) [1]: >36 h
- Relative Stability to DTT (BDC) [5]: 30
- t1/2 (hrs) (rat plasma) [2]: >36 h
- Kd (MT1-MMP hemopexin domain; footnote e: 17-69-07-N004 as tracer in FP competition): 0.5 nM
- efficacy, tumour clearance [6]: efficacious and cleared tumours in 9 days
- tolerability, body weight [6]: well tolerated at efficacious doses
- degradation half-life in human plasma [7]: > 14 h

Compound: COc1cc2cc(c1Cl)N(C)C(=O)C[C@H](OC(=O)[C@H](C)N(C)C(=O)CCC(C)SSC(C)CCC(=O)NCCC(=O)N(C)CC(=O)N(C)CC(=O)N(C)CC(=O)N(C)CC(=O)N(C)CC(=O)N(C)CC(=O)N(C)CC(=O)N(C)CC(=O)N(C)CC(=O)N(C)CC(=O)N[C@@H](C)C(=O)N[C@H]1CSCc3cc4cc(c3)CSC[C@H](NC(=O)[C@@H](C)NC(=O)[C@H](Cc3cccc5ccccc35)NC(=O)[C@H](CCC(=O)O)NC(=O)[C@H](CC(N)=O)NC(=O)[C@@H](C)NC1=O)C(=O)N[C@@H](CCC(=O)O)C(=O)N[C@@H](CC(=O)O)C(=O)N[C@@H](Cc1ccccc1)C(=O)N[C@@H](Cc1ccc(O)cc1)C(=O)N[C@@H](CC(=O)O)C(=O)N[C@@H](C(C)(C)C)C(=O)N[C@H](C(N)=O)CSC4)[C@]1(C)O[C@H]1[C@H](C)[C@@H]1C[C@@](O)(NC(=O)O1)[C@H](OC)/C=C/C=C(\C)C2 (stereo partly drawn) [BT17BDC-20] ({X2-βAla}-[Sar][Sar][Sar][Sar][Sar][Sar][Sar][Sar][Sar][Sar]AC[dA]NE[1Nal][dA]CEDFYD[Tle]C-NH2; linker 12-18-25 via TBMB)
- reduction in sensitivity to a reducing agent such as dithiothreitol (compared to the non-hindered disulphide) [4]: 170 fold
- Relative Stability to DTT (ADC) [4]: 170
- t1/2 (hrs) (mouse plasma) [1]: >36 h
- Relative Stability to DTT (BDC) [5]: 93
- t1/2 (hrs) (rat plasma) [2]: 34 ± 4 h
- Kd (MT1-MMP hemopexin domain; footnote f: 17-69-07-N040 as tracer in FP competition): 2.95 ± 1.3 nM
- efficacy, tumour clearance [6]: not efficacious and only caused a marginal reduction in tumour sizes
- tolerability, body weight [6]: tolerated based on constant weight
- t1/2 (hrs) (human plasma) ([7]; Table 16, incubation up to 24 hrs, 4 μM): 32 ± 1 h
- degradation half-life in human plasma [7]: > 14 h

Compound: CC[C@H](C)[C@@H]1NC(=O)[C@H](CC(=O)O)NC(=O)[C@H](Cc2ccc(O)cc2)NC(=O)[C@H](Cc2ccccc2)NC(=O)[C@H](CC(=O)O)NC(=O)[C@H](CCC(=O)O)NC(=O)[C@@H]2CSCc3cc(cc(c3)CSC[C@H](N)C(=O)N[C@@H](CCCCN)C(=O)N[C@@H](CC(N)=O)C(=O)N[C@@H](CCCNC(=N)N)C(=O)NCC(=O)N[C@@H](Cc3ccccc3)C(=O)NCC(=O)N2)CSC[C@@H](C(N)=O)NC1=O [Peptide 17-69] (H-CKNRGFGCEDFYDIC-NH2; linker 1-8-15 via TBMB)
- alpha screen binding signal [8]: qualitative binding to the target was verified

Compound: Ac-CYNEFGCEDFYDIC
- fragment found [9]: excision of YNE in loop 1, major; also recorded: excision of YNEF in loop 1; also recorded: excision of YNEFG in loop 1 (the entire loop is removed); also recorded: excision of YD in loop 2, minor; also recorded: excision of FYD in loop 2, minor; also recorded: excision of YDI in loop 2, minor; also recorded: excision of EDFYDI in loop 2 (the entire loop is removed), minor
- fragment found [10]: excision of YNEFG in loop 1 (entire loop removed); also recorded: excision of EDFYDI in loop 2 (entire loop removed), minor

Compound: βAla-Sar10-A-C(D-Ala)NE(1Nal)(D-Ala)CEDFYD(tBuGly)C
- not cleaved (rat plasma): stable; t1/2 >36 hrs (rat plasma)
- not cleaved (mouse plasma): stable; t1/2 >36 hrs (mouse plasma)
- not cleaved (human plasma): stable; t1/2 >36 hrs (human plasma)
